Laboratory results published in patent US10238670B2, “9-aminomethyl minocycline compounds and methods of use thereof in urinary tract infection (UTI) treatment” (Paratek Pharmaceuticals, Inc., priority 2016, dated 2019).
≈ marks a conversion by molar mass, not a printed value. Where two headings read alike, the source gives them in different places.

Legend:
[1] = complicated skin and skin structure infection; cited from earlier work
S. marcescens = test: In vitro MIC, 2010 surveillance isolates; format: cell-based; settings: N=424
E. faecalis VNS = test: In vitro MIC, 2010 surveillance isolates; format: cell-based; settings: for Cumulative % Inhibition at MIC: N=54; for MIC90: N=38
P. aeruginosa = test: In vitro MIC (Data from CMI 07); format: cell-based; settings: N=22
E. coli (ATCC 25922) = settings: Macone 2014; cited from earlier work
[2] = cited from earlier work
[3] = tested on: E. coli isolates, including ESBL+ and quinolone resistance phenotypes; test: In vitro MIC, 2010 surveillance study of 4171 E. coli isolates; format: cell-based
K. pneumoniae FQS = test: In vitro MIC, 2010 surveillance isolates; format: cell-based, Klebsiella pneumoniae; settings: N=1561
baseline pathogen = test: Phase 1b study, per-pathogen microbiological response at PTE (urine culture); format: in vivo, human
Procedure: At screening and at all study visits (i.e., screening, daily while on treatment, and at EOT and PTE visits) a microbiologic evaluation of the infection under study was performed. A clean-catch midstream urine sample was collected and immediately sent to the local microbiology laboratory for microscopic examination and culture. Quantitative urine culture by appropriate methods was performed using a calibrated loop that would identify bacteria at a lower limit of 1×10^3 CFU/mL. In general, bacteria identified at 1×10^5 colony forming units (CFU)/mL or greater were considered a bacterial pathogen (probability of true pathogen was greater than probability of contamination). In addition, if the same bacteria was isolated in the blood and in the urine at any CFU count it was considered a pathogen. Culture results were to include identification of all pathogens to the level of genus and species. In vitro antimicrobial susceptibility testing of the isolates to antimicrobial drugs that may be used to treat UTIs was performed locally using a standard method chosen by the laboratory. The microbiological outcome was determined programmatically based on the local and Central Laboratory microbiological analyses. For an isolate to be considered a pathogen at screening, it must presented in the urine sample at ≥10^5 CFU/mL or the pathogen should be isolated from both the blood and urine at any CFU count. Microbiological outcome was defined as: • Eradication: […] The pathogens isolated at baseline were presented by genus and species by treatment group. The number and percentage of subjects with a by-subject and by-pathogen eradication, persistence and indeterminate microbiologic response were presented. A listing of all baseline and post-baseline isolates was provided.

E. coli FQR = test: In vitro MIC, 2010 surveillance isolates; format: cell-based, Escherichia coli; settings: N=1264
[4] = 14C-Compound 1 excretion and kidney/blood distribution in rats; format: in vivo, rat
[5] = Enterococcus faecalis, IV_PO300
[6] = Overall Gram Negative Pathogens, IV_PO300
[7] = Overall Gram Negative Pathogens, PO300
[8] = Overall Gram Negative Pathogens, PO450
[9] = Overall Gram Positive Pathogens, IV_PO300
[10] = Overall Gram Positive Pathogens, PO300
[11] = Overall Gram Positive Pathogens, PO450
[12] = Staphylococcus saprophyticus, PO450
[13] = Streptococcus agalactiae - (Group B), PO300

SMILES: CN(C)c1cc(CNCC(C)(C)C)c(O)c2c1C[C@H]1C[C@H]3[C@H](N(C)C)C(O)=C(C(N)=O)C(=O)[C@@]3(O)C(O)=C1C2=O [Compound 1, 9-[(2,2-dimethyl-propylamino)-methyl]-minocycline]
- clinical efficacy and tolerability [1]: comparable to linezolid
- Cumulative % Inhibition at MIC (S. marcescens; MIC 1 μg/ml): 0.7%
- Cumulative % Inhibition at MIC (S. marcescens; MIC 2 μg/ml): 20.3%
- Cumulative % Inhibition at MIC (S. marcescens; MIC 4 μg/ml): 76.2%
- Cumulative % Inhibition at MIC (S. marcescens; MIC 8 μg/ml): 91.0%
- Cumulative % Inhibition at MIC (S. marcescens; MIC 16 μg/ml): 93.6%
- Cumulative % Inhibition at MIC (S. marcescens; MIC ≤0.5 μg/ml, listed as head image P00017): 0%
- Cumulative % Inhibition at MIC (S. marcescens; MIC ≥32 μg/ml): 100%
- range of MICs (N <10, shown instead of MIC90) (E. faecalis VNS; Asia/Pac, N=1): 0.5
- range of MICs (N <10, shown instead of MIC90) (E. faecalis VNS; Europe, N=8): 0.06-0.5
- range of MICs (N <10, shown instead of MIC90) (E. faecalis VNS; L. Amer, N=7): ≤0.015-0.06
- Cumulative % Inhibition at MIC (E. faecalis VNS; MIC 1 μg/ml): 100%
- Cumulative % Inhibition at MIC (E. faecalis VNS; MIC ≤0.5 μg/ml, listed as head image P00002): 98.1%
- MIC90 (E. faecalis VNS; N America): 0.25 µg/mL (≈ 0.449 µM)
- Cumulative % Inhibition at MIC (P. aeruginosa; MIC 1 μg/ml): 0%
- Cumulative % Inhibition at MIC (P. aeruginosa; MIC 2 μg/ml): 0%
- Cumulative % Inhibition at MIC (P. aeruginosa; MIC 4 μg/ml): 0%
- Cumulative % Inhibition at MIC (P. aeruginosa; MIC 8 μg/ml): 0%
- Cumulative % Inhibition at MIC (P. aeruginosa; MIC 16 μg/ml): 9.1%
- Cumulative % Inhibition at MIC (P. aeruginosa; MIC ≤0.5 μg/ml, Data from CMI 07): 0%
- Cumulative % Inhibition at MIC (P. aeruginosa; MIC ≥32 μg/ml): 100%
- reported MIC against E. coli (E. coli (ATCC 25922)): 0.5 to 2 µg/mL
- peak plasma concentration ([2]; 100 mg IV dose): 1.8 mg/L
- peak plasma concentration ([2]; 300 mg oral dose): 0.6 mg/L
- elimination half-life ([2]; phase 1 studies): approximately 17 hours
- isolates with an MIC value <4 μg/mL [3]: > 97%
- Cumulative % Inhibition at MIC (K. pneumoniae FQS; MIC 1 μg/ml): 29.6%
- Cumulative % Inhibition at MIC (K. pneumoniae FQS; MIC 2 μg/ml): 79.3%
- Cumulative % Inhibition at MIC (K. pneumoniae FQS; MIC 4 μg/ml): 92.5%
- Cumulative % Inhibition at MIC (K. pneumoniae FQS; MIC 8 μg/ml): 95.9%
- Cumulative % Inhibition at MIC (K. pneumoniae FQS; MIC 16 μg/ml): 98.5%
- Cumulative % Inhibition at MIC (K. pneumoniae FQS; MIC ≤0.5 μg/ml, listed as head image P00011): 2.4%
- Cumulative % Inhibition at MIC (K. pneumoniae FQS; MIC ≥32 μg/ml): 100%
- Eradication (baseline pathogen; Aerococcus urinae, PO450): 1 (100.0) n (%)
- Indeterminate (baseline pathogen; Aerococcus urinae, PO450): 0 (0.0) n (%)
- Persistence (baseline pathogen; Aerococcus urinae, PO450): 0 (0.0) n (%)
- Eradication (baseline pathogen; [5]): 1 (100.0) n (%)
- Indeterminate (baseline pathogen; [5]): 0 (0.0) n (%)
- Persistence (baseline pathogen; [5]): 0 (0.0) n (%)
- Eradication (baseline pathogen; Escherichia coli, IV_PO300): 3 (100.0) n (%)
- Indeterminate (baseline pathogen; Escherichia coli, IV_PO300): 0 (0.0) n (%)
- Persistence (baseline pathogen; Escherichia coli, IV_PO300): 0 (0.0) n (%)
- Eradication (baseline pathogen; Escherichia coli, PO300): 2 (66.7) n (%)
- Indeterminate (baseline pathogen; Escherichia coli, PO300): 0 (0.0) n (%)
- Persistence (baseline pathogen; Escherichia coli, PO300): 1 (33.3) n (%)
- Eradication (baseline pathogen; Escherichia coli, PO450): 2 (50.0) n (%)
- Indeterminate (baseline pathogen; Escherichia coli, PO450): 0 (0.0) n (%)
- Persistence (baseline pathogen; Escherichia coli, PO450): 2 (50.0) n (%)
- Eradication (baseline pathogen; Klebsiella pneumoniae, PO300): 1 (100.0) n (%)
- Indeterminate (baseline pathogen; Klebsiella pneumoniae, PO300): 0 (0.0) n (%)
- Persistence (baseline pathogen; Klebsiella pneumoniae, PO300): 0 (0.0) n (%)
- Eradication (baseline pathogen; Klebsiella pneumoniae, PO450): 1 (50.0) n (%)
- Indeterminate (baseline pathogen; Klebsiella pneumoniae, PO450): 0 (0.0) n (%)
- Persistence (baseline pathogen; Klebsiella pneumoniae, PO450): 1 (50.0) n (%)
- Eradication (baseline pathogen; [6]): 6 (100.0) n (%)
- Indeterminate (baseline pathogen; [6]): 0 (0.0) n (%)
- Persistence (baseline pathogen; [6]): 0 (0.0) n (%)
- Eradication (baseline pathogen; [7]): 4 (100.0) n (%)
- Indeterminate (baseline pathogen; [7]): 0 (0.0) n (%)
- Persistence (baseline pathogen; [7]): 1 (25.0) n (%)
- Eradication (baseline pathogen; [8]): 3 (50.0) n (%)
- Indeterminate (baseline pathogen; [8]): 0 (0.0) n (%)
- Persistence (baseline pathogen; [8]): 3 (50.0) n (%)
- Eradication (baseline pathogen; [9]): 1 (100.0) n (%)
- Indeterminate (baseline pathogen; [9]): 0 (0.0) n (%)
- Persistence (baseline pathogen; [9]): 0 (0.0) n (%)
- Eradication (baseline pathogen; [10]): 1 (100.0) n (%)
- Indeterminate (baseline pathogen; [10]): 0 (0.0) n (%)
- Persistence (baseline pathogen; [10]): 0 (0.0) n (%)
- Eradication (baseline pathogen; [11]): 2 (100.0) n (%)
- Indeterminate (baseline pathogen; [11]): 0 (0.0) n (%)
- Persistence (baseline pathogen; [11]): 0 (0.0) n (%)
- Eradication (baseline pathogen; Proteus mirabilis, IV_PO300): 3 (100.0) n (%)
- Indeterminate (baseline pathogen; Proteus mirabilis, IV_PO300): 0 (0.0) n (%)
- Persistence (baseline pathogen; Proteus mirabilis, IV_PO300): 0 (0.0) n (%)
- Eradication (baseline pathogen; Proteus mirabilis, PO300): 1 (100.0) n (%)
- Indeterminate (baseline pathogen; Proteus mirabilis, PO300): 0 (0.0) n (%)
- Persistence (baseline pathogen; Proteus mirabilis, PO300): 0 (0.0) n (%)
- Eradication (baseline pathogen; [12]): 1 (100.0) n (%)
- Indeterminate (baseline pathogen; [12]): 0 (0.0) n (%)
- Persistence (baseline pathogen; [12]): 0 (0.0) n (%)
- Eradication (baseline pathogen; [13]): 1 (100.0) n (%)
- Indeterminate (baseline pathogen; [13]): 0 (0.0) n (%)
- Persistence (baseline pathogen; [13]): 0 (0.0) n (%)
- Cumulative % Inhibition at MIC (E. coli FQR; MIC 1 μg/ml): 64.4%
- Cumulative % Inhibition at MIC (E. coli FQR; MIC 2 μg/ml): 89.2%
- Cumulative % Inhibition at MIC (E. coli FQR; MIC 4 μg/ml): 97.7%
- Cumulative % Inhibition at MIC (E. coli FQR; MIC 8 μg/ml): 99.6%
- Cumulative % Inhibition at MIC (E. coli FQR; MIC 16 μg/ml): 99.9%
- Cumulative % Inhibition at MIC (E. coli FQR; MIC ≤0.5 μg/ml, listed as head image P00008): 29.6%
- Cumulative % Inhibition at MIC (E. coli FQR; MIC ≥32 μg/ml): 100%
- concentration of radioactivity, kidney pelvis ([4]; IV, 5 minutes post dose): 11,300 ng/g
- concentration of radioactivity, blood ([4]; IV, 24 hrs post dose): 57.6 ng/mL
- AUCinf, blood ([4]; oral dosing): 3030 ng·h/mL
- AUCinf, kidney cortex ([4]; oral dosing): 11,000 ng*h/ml
- AUCinf, kidney medulla ([4]; oral dosing): 10,900 ng*h/ml
- AUCinf, kidney pelvis ([4]; oral dosing): 10,500 ng*h/ml
- Cmax, blood ([4]; oral dosing): 125 ng/mL
- Cmax, kidney cortex ([4]; oral dosing): 721 ng/g
- Cmax, kidney medulla ([4]; oral dosing): 722 ng/g
- Cmax, kidney pelvis ([4]; oral dosing): 1580 ng/g

SMILES: CN(C)c1cc(NC(=O)CNC(C)(C)C)c(O)c2c1C[C@H]1C[C@H]3[C@H](N(C)C)C(O)=C(C(N)=O)C(=O)[C@@]3(O)C(O)=C1C2=O [Tigecycline]
- range of MICs (N <10, shown instead of MIC90) (E. faecalis VNS; Asia/Pac, N=1): 0.25
- % R (resistance) (E. faecalis VNS; Europe, Eucast breakpoints): 0%
- range of MICs (N <10, shown instead of MIC90) (E. faecalis VNS; Europe, N=8): ≤0.03-0.25
- % R (resistance) (E. faecalis VNS; L. Amer, CLSI breakpoints): 0%
- range of MICs (N <10, shown instead of MIC90) (E. faecalis VNS; L. Amer, N=7): ≤0.03-0.06
- % R (resistance) (E. faecalis VNS; N America, CLSI breakpoints): 0%
- MIC90 (E. faecalis VNS; N America): 0.25 µg/mL (≈ 0.427 µM)
